Measurements: US12116359B2, “EBNA1 inhibitor crystalline forms, and methods of preparing and using same” (THE WISTAR INSTITUTE, priority 2018, dated 2024)
“Also recorded” adds a separate entry of the source. Where two headings read alike, the source gives them in different places.

What was measured:
Assay type in all cases: physicochemical
[1] = Storage stability of solid forms at elevated temperature/humidity (XRPD, HPLC purity)
Protocol: Purity analysis was performed on an Agilent HP1100 series system equipped with a diode array detector and using ChemStation software vB.04.03 using the method detailed in Table 1.
Amorphous (I) free acid was stored at 40° C./75% RH (open vial), 25° C./97% RH (open vial) and 60° C. (closed vial, ambient humidity) for 8 weeks.
Characterization by XRPD, ^1H NMR, TGA, DSC and storage at 40° C./75% RH for one week was carried out. Details are found in Table 10.

[2] = Gravimetric vapour sorption (GVS); conditions: for Hygroscopicity: GVS, 0-90% RH
Protocol: Sorption isotherms were obtained using a SMS DVS Intrinsic moisture sorption analyzer, controlled by DVS Intrinsic Control software. The sample temperature was maintained at 25° C. by instrument controls. The humidity was controlled by mixing streams of dry and wet nitrogen, with a total flow rate of 200 ml/min. The relative humidity was measured by a calibrated Rotronic probe (dynamic range of 1.0-100% RH), located near the sample. The weight change (mass relaxation) of the sample as a function of % RH was constantly monitored by the microbalance (accuracy ±0.005 mg). Typically 5-20 mg of sample was placed in a tared mesh stainless steel basket under ambient conditions. The sample was loaded and unloaded at 40% RH and 25° C. (typical room conditions). A moisture sorption isotherm was performed as outlined below (2 scans giving 1 complete cycle). The standard isotherm was performed at 25° C. at 10% RH intervals over a 0-90% RH range. Data analysis was carried out using Microsoft Excel. The sample was recovered after completion of the isotherm and re-analyzed by XRPD.

[3] = Preliminary solubility assessment in solvents; conditions: RT
Protocol: Amorphous (I) free acid (post washing, ca. 20 mg) was dissolved or suspended in a range of solvent systems (using 10 or 20 volumes) at RT. Solutions were placed in a fridge at 4° C. overnight. If no solid was obtained, the solution was then allowed to evaporate at RT. Suspensions were matured between RT-50° C. heat-cool cycles (8 h per cycle) for up to 7 days. Solids were analyzed by XRPD.

[4] = Storage stability of solid forms at elevated temperature/humidity (XRPD, HPLC purity); conditions: 4 weeks
[5] = Further stability experiments on crystalline forms (vacuum drying, grinding, storage)
Protocol: Further experiments were carried out, involving heating, vacuum drying and/or grinding the materials in order to assess the stability of the solvated materials and the potential crystallization of an anhydrous form by desolvation.

O=C(O)c1cccc(C#Cc2ccc(COC3CCOCC3)cc2)c1-c1ccc2cc[nH]c2c1 [Amorphous (I) free acid, 2-(1H-Indol-6-yl)-3-[4-(tetrahydro-pyran-4-yloxymethyl)-phenylethynyl]-benzoic acid]
Decrease in chemical purity after storage ([1]; 25° C./97% RH, 8 weeks): 4.0 % (AUC)
XRPD after storage at 25° C./97% RH for 8 weeks ([1]; 25° C./97% RH, open vial, 8 weeks): completely amorphous trace by XRPD; also recorded: amorphous traces
Purity by HPLC after storage at 25° C./97% RH for 8 weeks ([1]; 25° C./97% RH, open vial, 8 weeks, initial purity 95.5% (AUC)): 91.5 % (AUC)
Purity by HPLC after storage at 25° C./97% RH for 8 weeks ([1]; 25° C./97% RH, open vial, 8 weeks, initial purity 95.5% (AUC), listed as (I) free acid amorphous material): present. 91.5% (AUC) purity.
Decrease in chemical purity after storage ([1]; 40° C./75% RH, 8 weeks): 2.0 % (AUC)
XRPD after storage at 40° C./75% RH for 8 weeks ([1]; 40° C./75% RH, open vial, 8 weeks): unchanged by XRPD; also recorded: amorphous traces
Purity by HPLC after storage at 40° C./75% RH for 8 weeks ([1]; 40° C./75% RH, open vial, 8 weeks, initial purity 95.5% (AUC)): 93.5 % (AUC)
XRPD after storage at 40° C./75% RH for 8 weeks ([1]; 40° C./75% RH, open vial, 8 weeks, listed as (I) free acid amorphous material): Unchanged by XRPD
Decrease in chemical purity after storage ([1]; 60° C., 8 weeks): 1.1 % (AUC)
XRPD after storage at 60° C. for 8 weeks ([1]; 60° C., closed vial, ambient humidity, 8 weeks): unchanged by XRPD; also recorded: amorphous traces
Purity by HPLC after storage at 60° C. for 8 weeks ([1]; 60° C., closed vial, ambient humidity, 8 weeks, initial purity 95.5% (AUC)): 94.4 % (AUC)
XRPD after storage at 60° C. for 8 weeks ([1]; 60° C., closed vial, ambient humidity, 8 weeks, listed as (I) free acid amorphous material): Unchanged by XRPD
Hygroscopicity [2]: hygroscopic
Hygroscopicity ([2]; listed as main batch): hygroscopic
XRPD after GVS ([2]; after 0-90% RH isotherm, listed as (I) free acid amorphous material): 0-90% RH with hysteresis. Unchanged by XRPD.
GVS moisture uptake ([2]; between 0-90% RH, 25° C.): ca. 5.50%
GVS reversible moisture uptake ([2]; between 0-90% RH, 25° C.): 5.5% w/w reversible moisture uptake between
solubility ([3]; 1,4-dioxane, organic solvent or mixture, thermodynamic from solid, 1,4-Dioxane, 10 vol, read-out: Solubility assessment 10 vol): > 100 mg/mL
solubility ([3]; 2-propanol, organic solvent or mixture, thermodynamic from solid, 2-Propanol, 10 vol, read-out: Solubility assessment 10 vol): > 100 mg/mL
solubility ([3]; acetone, organic solvent or mixture, thermodynamic from solid, Acetone, 10 vol, read-out: Solubility assessment 10 vol): > 100 mg/mL
solubility ([3]; acetone/5% water, organic solvent or mixture, thermodynamic from solid, Acetone/5% water, 10 vol, read-out: Solubility assessment 10 vol): > 100 mg/mL
solubility ([3]; acetonitrile, organic solvent or mixture, thermodynamic from solid, Acetonitrile, 10 vol, read-out: Solubility assessment 10 vol): > 100 mg/mL
solubility ([3]; anisole, organic solvent or mixture, thermodynamic from solid, Anisole, 10 vol, read-out: Solubility assessment 10 vol): > 100 mg/mL
solubility ([3]; dichloromethane, organic solvent or mixture, thermodynamic from solid, Dichloromethane, 10 vol, read-out: Solubility assessment 10 vol): > 100 mg/mL
solubility ([3]; ethanol, organic solvent or mixture, thermodynamic from solid, Ethanol, 10 vol, read-out: Solubility assessment 10 vol): > 100 mg/mL
solubility ([3]; ethanol/5% water, organic solvent or mixture, thermodynamic from solid, Ethanol/5% water, 10 vol, read-out: Solubility assessment 10 vol): > 100 mg/mL
solubility ([3]; ethyl acetate, organic solvent or mixture, thermodynamic from solid, Ethyl Acetate, 10 vol, read-out: Solubility assessment 10 vol): > 100 mg/mL
solubility ([3]; heptane, organic solvent or mixture, thermodynamic from solid, Heptane, 10 vol, read-out: Solubility assessment 10 vol): < 100 mg/mL
solubility ([3]; heptane, organic solvent or mixture, thermodynamic from solid, Heptane, 20 vol, read-out: Solubility assessment 20 vol): < 50 mg/mL
solubility ([3]; methanol, organic solvent or mixture, thermodynamic from solid, Methanol, 10 vol, read-out: Solubility assessment 10 vol): > 100 mg/mL
solubility ([3]; methylethyl ketone, organic solvent or mixture, thermodynamic from solid, Methylethyl Ketone, 10 vol, read-out: Solubility assessment 10 vol): > 100 mg/mL
solubility ([3]; methylisobutyl ketone (printed Methylisoburyl Ketone), organic solvent or mixture, thermodynamic from solid, Methylisoburyl Ketone, 10 vol, read-out: Solubility assessment 10 vol): > 100 mg/mL
solubility ([3]; nitromethane, organic solvent or mixture, thermodynamic from solid, Nitromethane, 10 vol, read-out: Solubility assessment 10 vol): < 100 mg/mL
solubility ([3]; nitromethane, organic solvent or mixture, thermodynamic from solid, Nitromethane, 20 vol, read-out: Solubility assessment 20 vol): < 50 mg/mL
solubility ([3]; tetrahydrofuran, organic solvent or mixture, thermodynamic from solid, Tetrahydrofuran, 10 vol, read-out: Solubility assessment 10 vol): > 100 mg/mL
solubility ([3]; toluene, organic solvent or mixture, thermodynamic from solid, Toluene, 10 vol, read-out: Solubility assessment 10 vol): < 100 mg/mL
solubility ([3]; toluene, organic solvent or mixture, thermodynamic from solid, Toluene, 20 vol, read-out: Solubility assessment 20 vol): < 50 mg/mL
solubility ([3]; water, thermodynamic from solid, Water, 10 vol, read-out: Solubility assessment 10 vol): < 100 mg/mL
solubility ([3]; water, thermodynamic from solid, Water, 20 vol, read-out: Solubility assessment 20 vol): < 50 mg/mL

O=C(O)c1cccc(C#Cc2ccc(COC3CCOCC3)cc2)c1-c1ccc2cc[nH]c2c1 [Pattern 1, 2-(1H-Indol-6-yl)-3-[4-(tetrahydro-pyran-4-yloxymethyl)-phenylethynyl]-benzoic acid]
XRPD after storage at 25° C./97% RH for 4 weeks ([1]; 25° C./97% RH, 4 weeks): Unchanged by XRPD.
XRPD after storage at 40° C./75% RH for 4 weeks ([1]; 40° C./75% RH, 4 weeks): Unchanged by XRPD.
XRPD after storage at 25° C./97% RH for 4 weeks ([4]; listed as Crystalline (I)): remained unchanged by XRPD
XRPD after storage at 25° C./97% RH for 4 weeks ([4]; listed as crystalline batch): remained unchanged by XRPD
XRPD after storage at 40° C./75% RH for 4 weeks ([4]; listed as Crystalline (I)): remained unchanged by XRPD
XRPD after storage at 40° C./75% RH for 4 weeks ([4]; listed as crystalline batch): remained unchanged by XRPD

O=C(O)c1cccc(C#Cc2ccc(COC3CCOCC3)cc2)c1-c1ccc2cc[nH]c2c1 [Pattern 2, 2-(1H-Indol-6-yl)-3-[4-(tetrahydro-pyran-4-yloxymethyl)-phenylethynyl]-benzoic acid]
Grinding and vacuum drying at 55° C.: solvent content ([5]; 1H NMR, 0.5 eq. toluene as prepared): 0.3 eq. toluene
Grinding and vacuum drying at 55° C.: crystallinity ([5]; XRPD): significant loss of crystallinity; also recorded: Lower crystallinity
Vacuum drying 40° C. or 55° C. ([5]; solid form and solvent content by XRPD or 1H NMR): Unchanged by XRPD

O=C(O)c1cccc(C#Cc2ccc(COC3CCOCC3)cc2)c1-c1ccc2cc[nH]c2c1 [Pattern 3, 2-(1H-Indol-6-yl)-3-[4-(tetrahydro-pyran-4-yloxymethyl)-phenylethynyl]-benzoic acid]
Storage at 40° C./75% RH for 3.5 days ([5]; 40° C./75% RH, 3.5 days, XRPD and 1H NMR): Unchanged by

O=C(O)c1cccc(C#Cc2ccc(COC3CCOCC3)cc2)c1-c1ccc2cc[nH]c2c1 [Pattern 4, 2-(1H-Indol-6-yl)-3-[4-(tetrahydro-pyran-4-yloxymethyl)-phenylethynyl]-benzoic acid]
Storage at 40° C./75% RH for 7 days ([1]; 40° C./75% RH, 7 days, solid form by XRPD): Unchanged
